Assay results as given in ChEMBL document CHEMBL3046358, “Multiple Pro-197 substitutions in the acetolactate synthase of rigid ryegrass (Lolium rigidum) and their impact on chlorsulfuron activity and plant growth” (Crop Prot, 2012).

What was measured:
Lolium rigidum [1] = test: Herbicidal activity against Lolium rigidum accession A10 assessed as fresh weight reduction applied at 1 times pre-emergence recommended rate relative to untreated control; type: functional; parameters: scale not given: the % may be the effect or the level left
[2] = biological target: T1, Acetolactate synthase (Lolium rigidum) (UniProt A7XBP7); test: Resistance index, ratio of I50 for acetolactate synthase Ala-197/Ala-197 mutant in Lolium rigidum accession A05 leaves extracts to I50 for acetolactate synthase in Lolium rigidum accession A01 leaves extracts
T1 sequence (whole entry): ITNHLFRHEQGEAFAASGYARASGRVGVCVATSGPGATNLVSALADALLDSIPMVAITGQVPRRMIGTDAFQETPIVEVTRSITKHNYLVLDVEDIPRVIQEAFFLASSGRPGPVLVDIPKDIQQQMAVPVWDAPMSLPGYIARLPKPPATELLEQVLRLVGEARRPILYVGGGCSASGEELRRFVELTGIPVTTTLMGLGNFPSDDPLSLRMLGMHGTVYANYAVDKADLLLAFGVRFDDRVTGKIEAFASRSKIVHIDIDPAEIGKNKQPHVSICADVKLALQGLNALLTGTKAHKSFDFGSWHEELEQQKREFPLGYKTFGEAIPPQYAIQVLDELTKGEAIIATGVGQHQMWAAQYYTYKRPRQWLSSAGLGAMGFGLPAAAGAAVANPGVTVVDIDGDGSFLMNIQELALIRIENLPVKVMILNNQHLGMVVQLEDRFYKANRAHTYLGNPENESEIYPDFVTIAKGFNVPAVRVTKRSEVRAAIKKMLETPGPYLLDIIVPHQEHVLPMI

Lolium rigidum [3] = test: Herbicidal activity against Lolium rigidum accession A08 assessed as fresh weight reduction applied at 4 times pre-emergence recommended rate relative to untreated control; type: functional; parameters: scale not given: the % may be the effect or the level left
Lolium rigidum [4] = test: Herbicidal activity against Lolium rigidum accession A05 assessed as emergence rate applied at 1 times pre-emergence recommended rate relative to untreated control; type: functional
Lolium rigidum [5] = test: Herbicidal activity against Lolium rigidum accession A13 assessed as fresh weight reduction applied at 1 times pre-emergence recommended rate relative to untreated control; type: functional; parameters: scale not given: the % may be the effect or the level left
Acetolactate synthase [6] = biological target: T2, Acetolactate synthase (Lolium rigidum, UniProt A7XBP7); test: Inhibition of acetolactate synthase Ala-197/Ala-197 mutant in Lolium rigidum accession A05 leaves extracts by acetolactate production assay; details: read-out: I50
Lolium rigidum [7] = test: Herbicidal activity against Lolium rigidum accession A07 assessed as emergence rate applied at 4 times pre-emergence recommended rate relative to untreated control; type: functional
Acetolactate synthase [8] = biological target: T2, Acetolactate synthase; test: Inhibition of acetolactate synthase Pro-197/Pro-197 mutant in Lolium rigidum accession A10 leaves extracts by acetolactate production assay; details: read-out: I50
Lolium rigidum [9] = test: Herbicidal activity against Lolium rigidum accession A07 assessed as fresh weight reduction applied at 1 times pre-emergence recommended rate relative to untreated control; type: functional; parameters: scale not given: the % may be the effect or the level left
Lolium rigidum [10] = test: Herbicidal activity against Lolium rigidum accession A10 assessed as emergence rate applied at 1 times pre-emergence recommended rate relative to untreated control; type: functional
Lolium rigidum [11] = test: Herbicidal activity against Lolium rigidum accession A15 assessed as emergence rate applied at 1 times pre-emergence recommended rate relative to untreated control; type: functional
Lolium rigidum [12] = test: Herbicidal activity against Lolium rigidum accession A05 assessed as emergence rate applied at 1 times pre-emergence recommended rate applied in pots where terbufos had been incorporated into the soil relative to untreated control; type: functional
Lolium rigidum [13] = test: Herbicidal activity against Lolium rigidum accession A03 assessed as fresh weight reduction applied at 1 times pre-emergence recommended rate relative to untreated control; type: functional; parameters: scale not given: the % may be the effect or the level left
Lolium rigidum [14] = test: Herbicidal activity against Lolium rigidum accession A15 assessed as emergence rate applied at 1 times pre-emergence recommended rate applied in pots where terbufos had been incorporated into the soil relative to untreated control; type: functional
Acetolactate synthase [15] = biological target: T2, Acetolactate synthase; test: Inhibition of acetolactate synthase Ser-197/Ser-197 mutant in Lolium rigidum accession A21 leaves extracts by acetolactate production assay; details: read-out: I50
[16] = biological target: T1, Acetolactate synthase (Lolium rigidum); test: Resistance index, ratio of I50 for acetolactate synthase […]/Leu-197 mutant in Lolium rigidum accession A18 leaves extracts to I50 for acetolactate synthase in Lolium rigidum accession A01 leaves extracts
Lolium rigidum [17] = test: Herbicidal activity against Lolium rigidum accession A03 assessed as emergence rate applied at 1 times pre-emergence recommended rate relative to untreated control; type: functional
[18] = biological target: T1, Acetolactate synthase (Lolium rigidum); test: Resistance index, ratio of I50 for acetolactate synthase Ala-197/Ala-197 mutant in Lolium rigidum accession A16 leaves extracts to I50 for acetolactate synthase in Lolium rigidum accession A01 leaves extracts
[19] = biological target: T1, Acetolactate synthase (Lolium rigidum); test: Resistance index, ratio of I50 for acetolactate synthase Pro-197/Pro-197 mutant in Lolium rigidum accession A10 leaves extracts to I50 for acetolactate synthase in Lolium rigidum accession A01 leaves extracts
Lolium rigidum [20] = test: Herbicidal activity against Lolium rigidum accession A03 assessed as emergence rate applied at 4 times pre-emergence recommended rate relative to untreated control; type: functional
Lolium rigidum [21] = test: Herbicidal activity against Lolium rigidum accession A06 assessed as fresh weight reduction applied at 1 times pre-emergence recommended rate relative to untreated control; type: functional; parameters: scale not given: the % may be the effect or the level left
Lolium rigidum [22] = test: Herbicidal activity against Lolium rigidum accession A04 assessed as emergence rate applied at 4 times pre-emergence recommended rate relative to untreated control; type: functional
Lolium rigidum [23] = test: Herbicidal activity against Lolium rigidum accession A10 assessed as fresh weight reduction applied at 1 times pre-emergence recommended rate applied in pots where terbufos had been incorporated into the soil relative to untreated control; type: functional; parameters: scale not given: the % may be the effect or the level left
[24] = biological target: T1, Acetolactate synthase (Lolium rigidum); test: Resistance index, ratio of I50 for acetolactate synthase Ala-197/Ala-197 mutant in Lolium rigidum accession A20 leaves extracts to I50 for acetolactate synthase in Lolium rigidum accession A01 leaves extracts
Lolium rigidum [25] = test: Herbicidal activity against Lolium rigidum accession A05 assessed as fresh weight reduction applied at 1 times pre-emergence recommended rate relative to untreated control; type: functional; parameters: scale not given: the % may be the effect or the level left
[26] = biological target: T1, Acetolactate synthase (Lolium rigidum); test: Resistance index, ratio of I50 for acetolactate synthase Pro-197/Arg-197 or Pro-197/Ser-197 or Pro/Val or Ala/Leu mutant in Lolium rigidum accession A17 leaves extracts to I50 for acetolactate synthase in Lolium rigidum accession A01 leaves extracts
Acetolactate synthase [27] = biological target: T2, Acetolactate synthase; test: Inhibition of acetolactate synthase Leu-197/Leu-197 mutant in Lolium rigidum accession A08 leaves extracts by acetolactate production assay; details: read-out: I50
Lolium rigidum [28] = test: Herbicidal activity against Lolium rigidum accession A13 assessed as fresh weight reduction applied at 1 times pre-emergence recommended rate applied in pots where terbufos had been incorporated into the soil relative to untreated control; type: functional; parameters: scale not given: the % may be the effect or the level left
Lolium rigidum [29] = test: Herbicidal activity against Lolium rigidum accession A15 assessed as emergence rate applied at 4 times pre-emergence recommended rate relative to untreated control; type: functional
Lolium rigidum [30] = test: Herbicidal activity against Lolium rigidum accession A14 assessed as fresh weight reduction applied at 1 times pre-emergence recommended rate relative to untreated control; type: functional; parameters: scale not given: the % may be the effect or the level left
Lolium rigidum [31] = test: Herbicidal activity against Lolium rigidum accession A14 assessed as emergence rate applied at 1 times pre-emergence recommended rate relative to untreated control; type: functional
Lolium rigidum [32] = test: Herbicidal activity against Lolium rigidum accession A14 assessed as fresh weight reduction applied at 1 times pre-emergence recommended rate applied in pots where terbufos had been incorporated into the soil relative to untreated control; type: functional; parameters: scale not given: the % may be the effect or the level left
Lolium rigidum [33] = test: Herbicidal activity against Lolium rigidum accession A09 assessed as fresh weight reduction applied at 4 times pre-emergence recommended rate relative to untreated control; type: functional; parameters: scale not given: the % may be the effect or the level left
Lolium rigidum [34] = test: Herbicidal activity against Lolium rigidum accession A08 assessed as fresh weight reduction applied at 1 times pre-emergence recommended rate applied in pots where terbufos had been incorporated into the soil relative to untreated control; type: functional; parameters: scale not given: the % may be the effect or the level left

Work on `COc1nc(C)nc(NC(=O)NS(=O)(=O)c2ccccc2Cl)n1` [CHLORSULFURON] yielded an Activity (Lolium rigidum [1]) of 76%, a Ratio [2] of 163 and an Activity (Lolium rigidum [3]) of 46%. For the same molecule, the Activity (Lolium rigidum [4]) was 97%, the Activity (Lolium rigidum [5]) was 98% and the IC50 (Acetolactate synthase [6]) was 4.89 µM. For the same molecule, the Activity (Lolium rigidum [7]) was 34%, the IC50 (Acetolactate synthase [8]) was 0.04 µM and the Activity (Lolium rigidum [9]) was 0%. For the same molecule, the Activity (Lolium rigidum [10]) was 68%, the Activity (Lolium rigidum [11]) was 2% and the Activity (Lolium rigidum [12]) was 95%. The Activity (Lolium rigidum [13]) was 95%, the Activity (Lolium rigidum [14]) was 0% and the IC50 (Acetolactate synthase [15]) was 1.58 µM. It also gave a Ratio [16] of 54, an Activity (Lolium rigidum [17]) of 1% and a Ratio [18] of 257. It also gave a Ratio [19] of 1, an Activity (Lolium rigidum [20]) of 1% and an Activity (Lolium rigidum [21]) of 0%. It also gave an Activity (Lolium rigidum [22]) of 1%, an Activity (Lolium rigidum [23]) of 97% and a Ratio [24] of 36. The Activity (Lolium rigidum [25]) was 0%, the Ratio [26] was 29 and the IC50 (Acetolactate synthase [27]) was 16.9 µM. For the same molecule, the Activity (Lolium rigidum [28]) was 100%, the Activity (Lolium rigidum [29]) was 2% and the Activity (Lolium rigidum [30]) was 94%. The Activity (Lolium rigidum [31]) was 1%, the Activity (Lolium rigidum [32]) was 98% and the Activity (Lolium rigidum [33]) was 95%. The Activity (Lolium rigidum [34]) was 5%.
